# Measurements published in patent US6849416B2, “Monoclonal antibody” (priority 2001, dated 2005).
# Where a SMILES comes first, the peptide text is derived from it. [ ]: non-standard residue; d: D form. The star is where a group is joined. Nle = CCCC[C@H](N)C(=O)O; Cbz = O=C(OCc1ccccc1)*
# Tests used:
# [1] = tested on: human APP751Sw transgenic H4 neuroglioma cell line (released Aβ peptides); experiment: Treatment of APP751Sw transgenic H4 neuroglioma cells with protease inhibitors, Aβ peptides released into supernatant; assay type: cell-based; conditions: for Aβ1-40, Aβ1-42, Aβ1-37/38/39 and Aβ2-42 released into cell culture supernatant: versus DMSO control
# Method: FIG. 27: two Aβ SDS-PAGE/immunoblots 2 which show a treatment of a human 751APPSw trangenic H4 neuroglioma cell line with various protease inhibitors (23a) and a dose-dependent effect of calpain inhibitor 1 (23b). The released Aβ peptides were quantified in 4 μl of SDS/thermally denatured cell culture supernatants in each case (cf. FIGS. 23a,b). For comparison, the sAPPα concentration in the cell culture supernatants was determined.
# In panel a: (1) is DMSO control; (2) is 50 μM calpain inhibitor 1; (3) is 100 μM calpain inhibitor 3; (4) is 5 μM MG132; (5) is 25 μM calpeptin; (a-d) is mix of synthetic Aβ peptides.
# The released Aβ peptides were quantified in 4 μl of SDS/thermally denatured cell culture supernatants in each case. The dose-dependent effect of calpain inhibitor 1 on the Aβ peptide concentration in the supernatant was investigated, comparing with the DMSO control.
# The released Aβ peptides were quantified in 4 μl of SDS/thermally denatured cell culture supernatants in each case. The dose-dependent effect of calpain inhibitor 1 on the proportion of an Aβ peptide species as a percentage of the total Aβ peptide concentration was investigated, comparing with the DMSO control.
# If the samples are in liquid form (e.g. cell culture supernatants, cell homogenates) and if the Aβ peptide concentration is sufficiently high it is possible to take up one volume unit of sample with one volume unit of the double concentrated SDS-SB-2 (table 3).
# A comparative investigation was carried out on the Aβ peptide pattern in neuroglioma cells (H4) which have been transfected with humanAPP751Sw. […] Aβ2-42 can also be indentified. After treatment with inhibitors of β/γ-secretases (calpain inhibitor I&II, calpeptin, MG132, leupeptin), besides Aβ1-40 and Aβ1-42 there is also a reduction in the C-terminally truncated Aβ peptides 1-37/38/39 and the N-terminally truncated Aβ2-42 (FIGS. 28a,b).
# [2] = Aβ IPG 2D-PAGE of synthetic Aβ peptides (isoelectric point); assay type: physicochemical; conditions: IPG pH 4-7
# Method: The samples are taken up in IPG-SB (table 5a). Dry substance and Dynabeads magnetically immobilized by means of MSP (see below) are taken up directly with the IPG-SB immediately before IEF and incubated in an ultrasonic bath at 37° C. for 10 min. Taking up of liquid biological samples: after removal of the mixed bed ion exchanger (Serdolit MB-1), the IPB-SB is divided into aliquots (e.g. 100 μl) in Eppendorf sample vessels and concentrated to the dry substance at room temperature using a SpeedVac. The IPG-SB introduced as dry substance is taken up with sample with the ratio 1:1 by volume (e.g. 100 μl) and, after a vortex step (1 min.), incubated in an ultrasonic bath at 37° C. for 10 min.
# The IEF using commercial IPG “[…]” took place in accordance with the manufacturer's protocol (Amersham Pharmacia Biotech/brief instructions 71-5009-57, edition AA, 99-04). IPG “[…]” (4-7, linear pH gradient, length 7 cm) were rehydrogenated to a gel thickness of 0.5 mm using the rehydrogenation solution from table 5a at room temperature overnight. The sample loading device (“sample cups”) is placed on the basic side of the IPG strips, at about pH 6.5 (cathodic loading) and 30 μl of sample is loaded. The IPG-IEF takes place for 30 min/300V, 30 min/800V, 30 min./1400V and 5 h/2000V ([…]).
# The IPG-IEF is followed by equilibration of the “[…]” for 2×10 min. (table 5b). The first equilibration solution contains DTT (50 mg/5 ml), the second solution iodoacetamide (240 mg/5 ml) for neutralization of excess DTT, which otherwise leads to color artefacts on silver staining of the gels. The second equilibration step is unnecessary for the Western immunoblot. The equilibrated IPG “[…]” are fixed on the stacking gel of the Aβ SDS-PAGE using agarose solution (table 5c). A sample well for loading synthetic Aβ peptides or Mr marker proteins for comparison is made in the hot agarose using a Teflon tooth. The electrophoresis takesplace in accordance with 3.1.2.
# [3] = Cryoprecipitation of synthetic peptide dissolved in water; assay type: physicochemical; conditions: dissolved with comparable concentration in water, freezing
# Source text: This makes it probable that the reduction caused by cryoprecipitation in Aβ1-42 in human CSF derives predominantly from the aggregate-bound proportion of the peptide. In the case of comparatively hydrophobic aggregates—for example lipoprotein-containing complexes—a loss through cryoprecipitation would not be surprising. In this connection, it is shown hereinafter (4.2.4) that ε4-positive patients in the NDC-3CP group show a particularly high rate of CP-related reduction in Aβ1-42 and have CSF levels which are approximately as low as ε4-positive AD-3CP patients.
compound,measurement,setting,value
CC(C)C[C@@H](C=O)NC(=O)[C@H](CC(C)C)NC(=O)[C@H](CC(C)C)NC(=O)OCc1ccccc1 [MG132] (Cbz-Leu-Leu-Leu-aldehyde),"Aβ1-40, Aβ1-42, Aβ1-37/38/39 and Aβ2-42 released into cell culture supernatant",[1],reduction
CCCC[C@@H](C=O)NC(=O)[C@H](CC(C)C)NC(=O)[C@H](CC(C)C)NC(C)=O [calpain inhibitor 1] (Ac-Leu-Leu-[Nle]-aldehyde),Aβ1-42 concentration at low concentration of the protease inhibitor,[1]; low inhibitor concentration,initial (paradoxical) increase
same,Aβ2-42 concentration in relation to the increase in Aβ1-42,[1]; low inhibitor concentration,did not correlate with an increase
same,"Aβ1-40, Aβ1-42, Aβ1-37/38/39 and Aβ2-42 released into cell culture supernatant",[1],dose-dependent reduction
same,"Aβ1-40, Aβ1-42, Aβ1-37/38/39 and Aβ2-42 released into cell culture supernatant",[1]; listed as calpain inhibitor I,reduction
CSCC[C@@H](C=O)NC(=O)[C@H](CC(C)C)NC(=O)[C@H](CC(C)C)NC(C)=O [calpain inhibitor II] (Ac-Leu-Leu-Met-aldehyde),"Aβ1-40, Aβ1-42, Aβ1-37/38/39 and Aβ2-42 released into cell culture supernatant",[1],reduction
CCCC[C@@H](C=O)NC(=O)[C@H](CC(C)C)NC(=O)OCc1ccccc1 [calpeptin],"Aβ1-40, Aβ1-42, Aβ1-37/38/39 and Aβ2-42 released into cell culture supernatant",[1],reduction
CC(=O)N[C@@H](CC(C)C)C(=O)N[C@@H](CC(C)C)C(=O)N[C@H](C=O)CCCNC(=N)N [leupeptin],"Aβ1-40, Aβ1-42, Aβ1-37/38/39 and Aβ2-42 released into cell culture supernatant",[1],reduction
Aβ1-42: synthetic β-amyloid peptide 1-42 (Bachem),isoelectric point,[2],5.37
same,cryoprecipitation compared with Aβ1-42 in human CSF,[3],distinctly less cryoprecipitation
"Aβ2-40: synthetic β-amyloid peptide 2-40, lacking N-terminal aspartate",isoelectric point,[2],6.37
Aβ3-40: synthetic β-amyloid peptide 3-40,isoelectric point,[2],6.37
